System: human iPS cell-derived hepatocytes
Assay: P450-Glo CYP3A4 assay, CYP3A4 activity value per cell
Type: cell-based
Conditions: FIG. 1C; added to medium that does not contain FBS, EGF and A83-01; culture period of 1 week
Experimental: For the cell culture medium, to a medium obtained by mixing equal amounts of a DMEM/F12 basal medium and an RPMI 1640 basal medium, each of the components was added so that the concentration thereof was to be the following final concentration.
Further, to the above composition, the following components were added in combination to prepare culture media for various hepatocytes,
Using the above-described various media, human iPS cell-derived hepatocytes (FUJIFILM Wako Pure Chemical Corporation, Cat #: C1026) were seeded on a collagen-coated 96-well plate at 1×10^5 cells per well and cultured in an incubator at 37° C. and 5% carbon dioxide gas, and the medium was exchanged every 24 hours. The luminescence intensity by a P450-Glo CYP3A4 assay (Promega Corporation) was measured by using an EnSpire multimode plate reader (PerkinElmer, Inc.) and corrected by the number of cells in the well to calculate the CYP3A4 activity value per cell in the culture period of 1 week.

Structure (SMILES): NC(=O)c1cccnc1 [nicotinamide]
- effect on function of hepatocytes (CYP3A4 activity per cell): positive factors for improving the function of hepatocytes
